Reference: PubChem BioAssay AID248 (DTP/NCI, 2004)
Values joined by “and” are separate entries in the source; they are usually repeats but may differ in a detail not shown here. Equal entries are not always repeated. Toxic doses and inconclusive results are not listed.

System: L1210 leukemia ip in BDF1 mice, survival T/C
Experiment: NCI In Vivo Anticancer Drug Screen. Data for tumor model L1210 Leukemia (intraperitoneal) in B6D2F1 (BDF1) mice
Settings: endpoint: mean survival time, higher = longer survival
Outline: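 Value reflects the ratio of survival in compound-treated mice to survival in vehicle-treated controls, with both groups carrying the same transplanted tumor.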

**Q.** Which T/C (dose: 25.0 mg/kg/injection, schedule: Q01DX009 (ip), vehicle: Klucel (hydroxypropylcellulose) (HPC)) does the source give for `Cc1ccc(NC(=O)N(CCCCl)N=O)cc1` here?
**A.** 103 % of control

**Q.** What about the T/C (dose: 50.0 mg/kg/injection, schedule: Q01DX009 (ip), vehicle: Klucel (hydroxypropylcellulose) (HPC)) of the same molecule?
**A.** 93 % of control

**Q.** And the T/C (dose: 59.0 mg/kg/injection, schedule: Q01DX009 (ip), vehicle: carboxymethylcellulose (CMC))?
**A.** 120 % of control

**Q.** And the T/C (dose: 88.0 mg/kg/injection, schedule: Q01DX009 (ip), vehicle: carboxymethylcellulose (CMC))?
**A.** 117 % of control

**Q.** And the T/C (dose: 100.0 mg/kg/injection, schedule: Q01DX001 (ip), vehicle: carboxymethylcellulose (CMC))?
**A.** 115 % of control

**Q.** What about the T/C (dose: 100.0 mg/kg/injection, schedule: Q01DX009 (ip), vehicle: Klucel (hydroxypropylcellulose) (HPC)) of the same molecule?
**A.** 97 % of control

**Q.** What about the T/C (dose: 118.0 mg/kg/injection, schedule: Q01DX001 (sc), vehicle: olive oil, sesame oil, peanut oil) of the same molecule?
**A.** 107 % of control

**Q.** And the T/C (dose: 133.0 mg/kg/injection, schedule: Q01DX009 (ip), vehicle: carboxymethylcellulose (CMC))?
**A.** 88 % of control

**Q.** And the T/C (dose: 177.0 mg/kg/injection, schedule: Q01DX001 (ip), vehicle: carboxymethylcellulose (CMC))?
**A.** 100 % of control and 113 % of control

**Q.** And the T/C (dose: 177.0 mg/kg/injection, schedule: Q01DX001 (sc), vehicle: olive oil, sesame oil, peanut oil)?
**A.** 107 % of control

**Q.** What about the T/C (dose: 200.0 mg/kg/injection, schedule: Q01DX001 (ip), vehicle: carboxymethylcellulose (CMC)) of the same molecule?
**A.** 121 % of control

**Q.** What about the T/C (dose: 200.0 mg/kg/injection, schedule: Q01DX009 (ip), vehicle: Klucel (hydroxypropylcellulose) (HPC)) of the same molecule?
**A.** 97 % of control

**Q.** What about the T/C (dose: 266.0 mg/kg/injection, schedule: Q01DX001 (ip), vehicle: carboxymethylcellulose (CMC)) of the same molecule?
**A.** 105 % of control

**Q.** And the T/C (dose: 266.0 mg/kg/injection, schedule: Q01DX001 (sc), vehicle: olive oil, sesame oil, peanut oil)?
**A.** 102 % of control

**Q.** What about the T/C (dose: 400.0 mg/kg/injection, schedule: Q01DX001 (ip), vehicle: carboxymethylcellulose (CMC)) of the same molecule?
**A.** 113 % of control and 119 % of control

**Q.** What about the T/C (dose: 400.0 mg/kg/injection, schedule: Q01DX001 (sc), vehicle: olive oil, sesame oil, peanut oil) of the same molecule?
**A.** 107 % of control

**Q.** How did the T/C (dose: 50.0 mg/kg/injection, schedule: Q01DX009 (ip), vehicle: acetone) turn out when `COC(=O)Cc1cc(=O)c2cc(C)ccc2[nH]1` was run?
**A.** 94 % of control

**Q.** And the T/C (dose: 100.0 mg/kg/injection, schedule: Q01DX009 (ip), vehicle: acetone)?
**A.** 101 % of control

**Q.** And the T/C (dose: 100.0 mg/kg/injection, schedule: Q04DX003 (ip), vehicle: saline)?
**A.** 94 % of control

**Q.** And the T/C (dose: 200.0 mg/kg/injection, schedule: Q01DX009 (ip), vehicle: acetone)?
**A.** 97 % of control

**Q.** What about the T/C (dose: 200.0 mg/kg/injection, schedule: Q04DX003 (ip), vehicle: saline) of the same molecule?
**A.** 94 % of control

**Q.** What about the T/C (dose: 400.0 mg/kg/injection, schedule: Q04DX003 (ip), vehicle: saline) of the same molecule?
**A.** 94 % of control

**Q.** How did the T/C (dose: 6.4 mg/kg/injection, schedule: Q01DX009 (ip), vehicle: carboxymethylcellulose (CMC)) turn out when `COc1cc(C=Nc2cc(Br)c(O)c(Br)c2)ccc1N(CCCl)CCCl` was run?
**A.** 101 % of control

**Q.** And the T/C (dose: 9.8 mg/kg/injection, schedule: Q01DX001 (ip), vehicle: carboxymethylcellulose (CMC))?
**A.** 104 % of control

**Q.** And the T/C (dose: 14.6 mg/kg/injection, schedule: Q01DX009 (ip), vehicle: carboxymethylcellulose (CMC))?
**A.** 103 % of control and 111 % of control

**Q.** What about the T/C (dose: 22.0 mg/kg/injection, schedule: Q01DX001 (ip), vehicle: carboxymethylcellulose (CMC)) of the same molecule?
**A.** 177 % of control

**Q.** What about the T/C (dose: 22.0 mg/kg/injection, schedule: Q01DX009 (ip), vehicle: carboxymethylcellulose (CMC)) of the same molecule?
**A.** 94 % of control

**Q.** And the T/C (dose: 25.0 mg/kg/injection, schedule: Q01DX001 (ip), vehicle: carboxymethylcellulose (CMC))?
**A.** 153 % of control

**Q.** And the T/C (dose: 50.0 mg/kg/injection, schedule: Q01DX001 (ip), vehicle: carboxymethylcellulose (CMC))?
**A.** 161 % of control

**Q.** Which results are given for `NC(N)=N/N=C/c1c[nH]c2ccc(OCc3ccccc3)cc12`?
**A.** T/C (dose: 15.0 mg/kg/injection, schedule: Q01DX Z (ip), vehicle: methylcellulose (MC)): 94 % of control; T/C (dose: 15.0 mg/kg/injection, schedule: Q01DX Z (oral), vehicle: methylcellulose (MC)): 90 % of control; T/C (dose: 30.0 mg/kg/injection, schedule: Q01DX Z (ip), vehicle: methylcellulose (MC)): 96 % of control; T/C (dose: 30.0 mg/kg/injection, schedule: Q01DX Z (oral), vehicle: methylcellulose (MC)): 87 % of control
